Reference: article PMC9228955, “Synthesis, Physicochemical, Labeling and In Vivo Characterization of ^44Sc-Labeled DO3AM-NI as a Hypoxia-Sensitive PET Probe” (Pharmaceuticals, 2022)

Legend:
[1] = Octanol/water partition coefficient (logP) of labeled complexes; type: physicochemical; conditions: 1-octanol/water, triplicates
Procedure: (§1) Subsequently, the octanol/water partition coefficient (logP) of the labeled complexes was determined to be −3.89 for [^68Ga]Ga(DO3AM-NI) and −2.59 for [^44Sc]Sc(DO3AM-NI). […] To assess the labeled compounds’ stability, the chelates were mixed with the solution of mouse plasma, Na2H2EDTA and oxalic acid, respectively. Aliquots were then taken at different time points (0, 60, 120 and 240 min) and injected into the radio-HPLC column, and the chromatograms were analyzed. After 240 min, the RCP of the samples was above 93% in all three cases.
A 10 µL volume of [^68Ga]Ga(DO3AM-NI) and [^44Sc]Sc(DO3AM-NI) solution (~5 MBq) was mixed with 500 µL of 1-octanol and 490 µL of water in an Eppendorf vial, respectively. The mixture was shaken with a vortex shaker (600 rpm) for 10 min and centrifuged (6000 rpm) for 5 min. Then, 100 µL from the octanol phase and 1 μL from the aqueous phase were pipetted into vials, and the aqueous aliquot was diluted to 100 µL with water in order to minimize the effects of sample geometry and the high difference of activity concentrations in the two solvents. The radioactivity of the fractions was determined with a gamma counter. The measurements were performed in triplicates for both labeled compounds.

[2] = Stability of labeled complexes in mouse plasma, Na2H2EDTA and oxalic acid by radio-HPLC; type: in vitro ADME
Procedure: as §1
A 10 µL volume of [^68Ga]Ga(DO3AM-NI) and [^44Sc]Sc(DO3AM-NI) solution was added to the solution of 90 µL of mouse plasma, Na2H2EDTA (0.01 M) and oxalic acid (0.01 M), respectively. Samples were analyzed by radio-HPLC at the beginning and after 60, 120 and 240 min. The analytical conditions were the same as detailed for the quality control of the labeled compound.

[3] = Ex vivo biodistribution in healthy control SCID mice; parameters: species or system CB17 SCID mice; conditions: mean ± SD
Procedure: Ex vivo biodistribution studies were carried out 90 min and 240 min after intravenous injection of ^44Sc- or ^68Ga-labeled DO3AM-NI, and the accumulated activities of the organs and tissues were determined using a gamma counter. By the quantitative analysis of the ex vivo data, significant differences were found between the %ID/g values when ^44Sc- and ^68Ga-labeled DO3AM-NI accumulations were compared. […] In contrast, e.g., [^18F]fluorine- [28], [^131I]iodine- [29], [^99mTc]technetium- [30] and [^64Cu]copper-labeled nitroimidazole-based probes, due to their chemical properties, were mainly metabolized via the liver, and the large abdominal accumulation impaired the evaluation of abdominal tumors in the PET images. The ^44Sc- and ^68Ga-labeled nitroimidazole derivatives had more favorable properties in terms of the reporting and evaluation of PET images and due to their rapid elimination through the urinary system.
(§2) For the determination of ex vivo biodistribution of the radiotracers, control and KB tumor-bearing mice were injected intravenously with 8.42 ± 0.38 MBq of ^68Ga- or ^44Sc-labeled DO3AM-NI via the tail vein. Mice were euthanized with 5% isoflurane 90 min or 4 h after intravenous radiotracer injection. Three tissue samples were taken from the selected organs, and their weight and radioactivity were measured with a calibrated gamma counter (Perkin-Elmer Packard Cobra, Waltham, MA, USA). The radiotracer uptake was expressed as %ID/g tissue.

KB tumors [4] = assay: In vivo PET/MRI imaging of KB tumor-bearing mice, quantitative SUV analysis; parameters: species or system CB17 SCID mice; conditions: 240 min after injection
Procedure: The tumor-specific accumulation of [^44Sc]Sc(DO3AM-NI) and [^68Ga]Ga(DO3AM-NI) was investigated by PET/MRI imaging 90 and 240 min after radiotracer injection using KB tumor-bearing mice. The subcutaneously growing KB tumors were clearly visualized using [^44Sc]Sc(DO3AM-NI) 90 and 240 min post injection with relatively higher SUVmean and SUVmax values (SUVmean: 1.46 ± 0.32 and SUVmax: 2.35 ± 0.47 at 90 min and SUVmean: 0.67 ± 0.03 and SUVmax: 1.55 ± 0.28 at 240 min). Lower accumulation was found in the same KB tumors by using the ^68Ga-labeled molecule (SUVmean: 0.79 ± 0.10, SUVmax: 1.94 ± 0.40 at 90 min and SUVmean: 0.51 ± 0.09 and SUVmax: 1.23 ± 0.10 at 240 min); however, this difference between the radiotracers was not significant (Figure 4E). […] In contrast, no significant differences were found between the T/M SUV values of the two radiotracers 90 min post injection (Figure 4F).
(§3) For tumor induction, SCID mice were injected with 5x10^6 KB tumor cells in 0.9% NaCl (100 µL) subcutaneously into the left shoulder area. The tumor growth was assessed by caliper measurements, and tumor size was calculated using the following formula: (largest diameter × smallest diameter^2)/2. In vivo experiments were carried out approximately 13 ± 1 days after […] injection of tumor cells at the tumor volume of approximately 110 mm^3.
For in vivo imaging studies, healthy control and KB tumor-bearing CB17 SCID mice were injected with 8.42 ± 0.38 MBq of ^68Ga- or ^44Sc-labeled DO3AM-NI via the lateral tail vein 13 ± 1 days after the inoculation of KB tumor cells. Then, 65 and 225 min after radiotracer injection, mice were anaesthetized by 3% isoflurane (Forane) with a dedicated small animal anesthesia device and whole-body T1-weighted MRI scans were performed (3D GRE EXT multi-FOV; TR/TE 15/2 ms; phase: 100; FOV 60 mm; NEX 2) using the preclinical nanoScan PET/MRI system with 1 Tesla magnetic field (Mediso Ltd., Hungary). After MRI imaging, 20 min static whole-body PET scans were acquired (90 min and 4 h after radiotracer injection).
Quantitative radiotracer uptake was expressed in terms of standardized uptake value (SUV), SUV = [VOI activity (Bq/mL)]/[injected activity (Bq)/animal weight (g)], assuming a density of 1 g/mL. Volumes of interest (VOI) were manually drawn around the edge of the organ or tumor activity using the InterView™ FUSION (Mediso Ltd., Hungary) image analysis software. Tumor-to-muscle (T/M) ratios were computed as the ratio between the activity in the tumor VOI and in the background (muscle) VOI. Skeletal muscles of the right shoulder area were used as background.

KB tumors [5] = assay: Ex vivo biodistribution in KB tumor xenografts; parameters: species or system CB17 SCID mice; conditions: for KB tumor uptake: 13 ± 1 days after subcutaneous tumor induction, n = 5, mean ± SD
Procedure: For the assessment of the accumulation in the tumors of [^44Sc]Sc(DO3AM-NI) and [^68Ga]Ga(DO3AM-NI), ex vivo biodistribution studies were performed 90 and 240 min post injection using KB tumor xenografts.
as §3, §2

octanol/water partition coefficient (logP) [1]: −2.59
RCP after 240 min ([2]; Na2H2EDTA (0.01 M)): above 93%
RCP after 240 min ([2]; mouse plasma): above 93%
RCP after 240 min ([2]; oxalic acid (0.01 M)): above 93%
Blood uptake ([3]; 90 min after i.v. injection): 0.08 ± 0.01 %ID/g
Fat uptake ([3]; 90 min after i.v. injection): 0.01 ± 0.001 %ID/g
Heart uptake ([3]; 90 min after i.v. injection): 0.04 ± 0.01 %ID/g
Kidney uptake ([3]; 90 min after i.v. injection): 1.17 ± 0.41 %ID/g
Large intestine uptake ([3]; 90 min after i.v. injection): 0.05 ± 0.01 %ID/g
Liver uptake ([3]; 90 min after i.v. injection): 0.14 ± 0.09 %ID/g
Lung uptake ([3]; 90 min after i.v. injection): 0.10 ± 0.04 %ID/g
Muscle uptake ([3]; 90 min after i.v. injection): 0.01 ± 0.01 %ID/g
Small intestine uptake ([3]; 90 min after i.v. injection): 0.10 ± 0.05 %ID/g
Spleen uptake ([3]; 90 min after i.v. injection): 0.07 ± 0.02 %ID/g
Stomach uptake ([3]; 90 min after i.v. injection): 0.09 ± 0.03 %ID/g
Urine uptake ([3]; 90 min after i.v. injection): 57.78 ± 12.41 %ID/g
Blood uptake ([3]; 240 min after i.v. injection): 0.03 ± 0.01 %ID/g
Fat uptake ([3]; 240 min after i.v. injection): 0.01 ± 0.01 %ID/g
Heart uptake ([3]; 240 min after i.v. injection): 0.03 ± 0.01 %ID/g
Kidney uptake ([3]; 240 min after i.v. injection): 0.89 ± 0.23 %ID/g
Large intestine uptake ([3]; 240 min after i.v. injection): 0.04 ± 0.004 %ID/g
Liver uptake ([3]; 240 min after i.v. injection): 0.20 ± 0.04 %ID/g
Lung uptake ([3]; 240 min after i.v. injection): 0.04 ± 0.003 %ID/g
Muscle uptake ([3]; 240 min after i.v. injection): 0.007 ± 0.002 %ID/g
Small intestine uptake ([3]; 240 min after i.v. injection): 0.03 ± 0.01 %ID/g
Spleen uptake ([3]; 240 min after i.v. injection): 0.06 ± 0.01 %ID/g
Stomach uptake ([3]; 240 min after i.v. injection): 0.03 ± 0.005 %ID/g
Urine uptake ([3]; 240 min after i.v. injection): 6.23 ± 1.25 %ID/g
tumor-to-muscle ratio T/M SUVmax (KB tumors [4]): 129.68 ± 26.11
tumor-to-muscle ratio T/M SUVmean (KB tumors [4]): 182.67 ± 23.50
T/M (tumor-to-muscle ratio) (KB tumors [5]; 90 min after injection): 79.30 ± 5.26
KB tumor uptake (KB tumors [5]; 90 min after injection): 0.82 ± 0.11 %ID/g
T/M (tumor-to-muscle ratio) (KB tumors [5]; 240 min after injection): 99.35 ± 5.14
KB tumor uptake (KB tumors [5]; 240 min after injection): 0.70 ± 0.14 %ID/g
T/M ratio relative to the T/M ratio of [^68Ga]Ga(DO3AM-NI) (KB tumors [5]; at each time point (90 and 240 min)): 10–15 fold
Structure (SMILES): O=C([O-])CN1CCN(CC(=O)[O-])CCN(CC(=O)NCCn2ccnc2[N+](=O)[O-])CCN(CC(=O)[O-])CC1.[44Sc+3] [[^44Sc]Sc(DO3AM-NI)]
